Test results as given in PMC10746543, “Design principles for cyclin K molecular glue degraders” (Nature Chemical Biology, 2023).
“And” between values parts separate entries of the source, which are not always exact repeats. Equal entries are not always repeated. Where two headings read alike, the source gives them in different places.

Experiments:
[1] = system: cyclin K–eGFP degradation reporter; assay: Cyclin K reporter stability analysis (dual-color cyclin K–eGFP reporter); type: cell-based, human; conditions: for reporter assay signal (normalized): replicates; for Normalized GFP/mCheery: flow source data
How it was run: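 Values reflect cyclin K–eGFP levels after a 5 h exposure, expressed as the green-to-red fluorescence ratio and scaled to three vehicle-treated controls. Measurements came from HEK293T–Cas9 reporter cells by flow cytometry.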

CDK9–cyclin T = biological target: T1, CDK9–cyclin T (Homo sapiens, UniProt P50750); assay: Lanthascreen kinase binding assay, CDK9
T1 construct: purchased Thermo Fisher
T1 sequence (P50750 whole entry): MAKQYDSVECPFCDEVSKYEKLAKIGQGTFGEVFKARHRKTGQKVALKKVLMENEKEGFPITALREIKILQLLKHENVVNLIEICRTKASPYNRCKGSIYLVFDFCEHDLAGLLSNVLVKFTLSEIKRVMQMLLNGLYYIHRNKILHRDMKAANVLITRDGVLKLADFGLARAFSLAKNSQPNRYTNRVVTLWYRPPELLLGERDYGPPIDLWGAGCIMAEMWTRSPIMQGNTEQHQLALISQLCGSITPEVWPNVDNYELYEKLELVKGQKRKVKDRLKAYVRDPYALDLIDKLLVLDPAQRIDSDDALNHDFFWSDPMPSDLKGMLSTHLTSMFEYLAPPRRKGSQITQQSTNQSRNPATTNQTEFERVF
T1 sequence (O60563 whole entry partner): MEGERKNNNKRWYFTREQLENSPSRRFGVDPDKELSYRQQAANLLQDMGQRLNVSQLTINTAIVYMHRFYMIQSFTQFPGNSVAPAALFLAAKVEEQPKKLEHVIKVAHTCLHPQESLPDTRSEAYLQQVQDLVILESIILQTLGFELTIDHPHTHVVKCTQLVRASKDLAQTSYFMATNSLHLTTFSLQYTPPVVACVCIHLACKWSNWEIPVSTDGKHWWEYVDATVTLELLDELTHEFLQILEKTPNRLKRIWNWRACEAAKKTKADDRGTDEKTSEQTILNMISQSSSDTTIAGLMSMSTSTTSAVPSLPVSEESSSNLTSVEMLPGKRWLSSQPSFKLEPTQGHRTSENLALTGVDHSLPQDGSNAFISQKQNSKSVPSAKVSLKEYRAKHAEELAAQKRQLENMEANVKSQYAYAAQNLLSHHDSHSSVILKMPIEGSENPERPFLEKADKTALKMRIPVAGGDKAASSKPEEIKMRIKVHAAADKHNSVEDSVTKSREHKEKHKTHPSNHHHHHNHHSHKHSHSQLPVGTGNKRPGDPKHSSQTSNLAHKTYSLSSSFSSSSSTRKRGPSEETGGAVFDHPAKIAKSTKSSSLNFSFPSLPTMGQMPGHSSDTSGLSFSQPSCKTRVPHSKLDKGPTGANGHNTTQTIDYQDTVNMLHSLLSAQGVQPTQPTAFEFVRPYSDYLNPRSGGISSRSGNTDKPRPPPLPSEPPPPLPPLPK
Description: (§1) Lanthascreen experiments were performed using commercially available reagents (Thermo Fisher) and according to the manufacturer’s instructions.

CDK2–cyclin A = biological target: T2, CDK2–cyclin A (Homo sapiens, UniProt P24941); assay: Lanthascreen kinase binding assay, CDK2; conditions: for Lanthascreen signal, sheet CDK2: raw replicates
T2 construct: purchased Thermo Fisher
Description: as §1

cyclin K = assay: Label-free quantitative mass spectrometry in MDA-MB-231 cells, cyclin K; type: cell-based, human
How it was run: (§2)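 MDA-MB-231 cells treated 5 h with 1 µM cyclin K degrader or DMSO. Lysates digested with LysC and trypsin, then analysed by label-free diaPASEF LC-MS on a TimsTOF Pro2 with directDIA search and MS1 precursor quantification. Protein abundances scaled and analysed with limma.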

CDK13 = biological target: T3, CDK13 (Homo sapiens, UniProt Q14004+Q16531); assay: Label-free quantitative mass spectrometry in MDA-MB-231 cells, CDK13; type: cell-based
T3 construct: endogenous in cells; host or cells: MDA-MB-231
T3 sequence (Q14004 whole entry): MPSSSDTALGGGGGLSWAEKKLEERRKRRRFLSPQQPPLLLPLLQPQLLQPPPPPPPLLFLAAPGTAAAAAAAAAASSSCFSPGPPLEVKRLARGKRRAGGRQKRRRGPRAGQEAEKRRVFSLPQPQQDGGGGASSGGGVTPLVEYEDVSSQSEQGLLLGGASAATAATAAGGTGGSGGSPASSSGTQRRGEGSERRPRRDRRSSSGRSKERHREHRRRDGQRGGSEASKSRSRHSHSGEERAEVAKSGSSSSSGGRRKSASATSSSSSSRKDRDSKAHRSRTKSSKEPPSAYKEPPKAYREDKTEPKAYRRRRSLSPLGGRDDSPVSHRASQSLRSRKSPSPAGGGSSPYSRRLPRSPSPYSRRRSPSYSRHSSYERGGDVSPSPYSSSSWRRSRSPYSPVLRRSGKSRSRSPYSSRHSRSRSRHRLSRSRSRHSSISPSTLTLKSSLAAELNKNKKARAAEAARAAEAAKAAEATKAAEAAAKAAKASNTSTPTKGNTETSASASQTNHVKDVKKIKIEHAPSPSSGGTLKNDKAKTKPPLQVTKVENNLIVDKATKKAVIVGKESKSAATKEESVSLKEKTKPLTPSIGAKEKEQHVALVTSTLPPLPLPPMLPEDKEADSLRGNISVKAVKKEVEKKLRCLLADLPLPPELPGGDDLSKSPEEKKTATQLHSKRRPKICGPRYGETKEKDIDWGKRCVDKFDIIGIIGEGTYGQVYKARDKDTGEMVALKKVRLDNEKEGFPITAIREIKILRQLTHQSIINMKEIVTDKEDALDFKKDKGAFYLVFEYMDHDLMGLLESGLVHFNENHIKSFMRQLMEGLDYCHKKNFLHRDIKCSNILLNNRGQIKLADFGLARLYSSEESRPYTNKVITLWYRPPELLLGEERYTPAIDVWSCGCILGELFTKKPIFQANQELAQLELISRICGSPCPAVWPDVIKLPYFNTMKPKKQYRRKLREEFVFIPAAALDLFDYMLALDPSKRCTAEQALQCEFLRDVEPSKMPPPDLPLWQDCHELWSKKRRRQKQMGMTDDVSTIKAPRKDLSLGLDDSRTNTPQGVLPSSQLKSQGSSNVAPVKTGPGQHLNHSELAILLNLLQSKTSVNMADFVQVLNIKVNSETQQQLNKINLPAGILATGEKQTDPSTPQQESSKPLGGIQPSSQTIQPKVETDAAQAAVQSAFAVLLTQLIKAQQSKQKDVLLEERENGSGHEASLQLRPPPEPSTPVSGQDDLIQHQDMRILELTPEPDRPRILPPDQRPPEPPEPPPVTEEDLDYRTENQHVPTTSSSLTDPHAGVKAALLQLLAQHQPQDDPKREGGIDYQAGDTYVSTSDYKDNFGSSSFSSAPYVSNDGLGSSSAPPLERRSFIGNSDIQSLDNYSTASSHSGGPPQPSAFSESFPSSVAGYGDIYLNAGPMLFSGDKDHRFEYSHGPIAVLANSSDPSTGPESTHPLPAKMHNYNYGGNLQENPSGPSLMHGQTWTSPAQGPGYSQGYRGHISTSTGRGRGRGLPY
T3 sequence (O75909 whole entry partner): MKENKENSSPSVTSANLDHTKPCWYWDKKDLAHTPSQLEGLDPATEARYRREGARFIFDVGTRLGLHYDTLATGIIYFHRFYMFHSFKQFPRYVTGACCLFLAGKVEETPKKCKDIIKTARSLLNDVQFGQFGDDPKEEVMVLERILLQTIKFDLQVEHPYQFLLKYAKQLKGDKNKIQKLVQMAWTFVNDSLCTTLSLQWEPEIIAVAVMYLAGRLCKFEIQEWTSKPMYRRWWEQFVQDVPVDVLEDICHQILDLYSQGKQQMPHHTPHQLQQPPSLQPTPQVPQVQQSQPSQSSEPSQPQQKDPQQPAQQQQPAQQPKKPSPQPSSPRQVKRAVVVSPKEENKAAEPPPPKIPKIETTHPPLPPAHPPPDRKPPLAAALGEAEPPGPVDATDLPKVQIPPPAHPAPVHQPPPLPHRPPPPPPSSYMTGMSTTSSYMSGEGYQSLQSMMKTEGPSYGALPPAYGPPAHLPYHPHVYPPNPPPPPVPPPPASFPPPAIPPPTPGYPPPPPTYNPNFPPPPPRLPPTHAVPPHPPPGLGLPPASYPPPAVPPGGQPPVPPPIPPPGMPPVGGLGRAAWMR
T3 sequence (Q16531 2-1140 limits assumed): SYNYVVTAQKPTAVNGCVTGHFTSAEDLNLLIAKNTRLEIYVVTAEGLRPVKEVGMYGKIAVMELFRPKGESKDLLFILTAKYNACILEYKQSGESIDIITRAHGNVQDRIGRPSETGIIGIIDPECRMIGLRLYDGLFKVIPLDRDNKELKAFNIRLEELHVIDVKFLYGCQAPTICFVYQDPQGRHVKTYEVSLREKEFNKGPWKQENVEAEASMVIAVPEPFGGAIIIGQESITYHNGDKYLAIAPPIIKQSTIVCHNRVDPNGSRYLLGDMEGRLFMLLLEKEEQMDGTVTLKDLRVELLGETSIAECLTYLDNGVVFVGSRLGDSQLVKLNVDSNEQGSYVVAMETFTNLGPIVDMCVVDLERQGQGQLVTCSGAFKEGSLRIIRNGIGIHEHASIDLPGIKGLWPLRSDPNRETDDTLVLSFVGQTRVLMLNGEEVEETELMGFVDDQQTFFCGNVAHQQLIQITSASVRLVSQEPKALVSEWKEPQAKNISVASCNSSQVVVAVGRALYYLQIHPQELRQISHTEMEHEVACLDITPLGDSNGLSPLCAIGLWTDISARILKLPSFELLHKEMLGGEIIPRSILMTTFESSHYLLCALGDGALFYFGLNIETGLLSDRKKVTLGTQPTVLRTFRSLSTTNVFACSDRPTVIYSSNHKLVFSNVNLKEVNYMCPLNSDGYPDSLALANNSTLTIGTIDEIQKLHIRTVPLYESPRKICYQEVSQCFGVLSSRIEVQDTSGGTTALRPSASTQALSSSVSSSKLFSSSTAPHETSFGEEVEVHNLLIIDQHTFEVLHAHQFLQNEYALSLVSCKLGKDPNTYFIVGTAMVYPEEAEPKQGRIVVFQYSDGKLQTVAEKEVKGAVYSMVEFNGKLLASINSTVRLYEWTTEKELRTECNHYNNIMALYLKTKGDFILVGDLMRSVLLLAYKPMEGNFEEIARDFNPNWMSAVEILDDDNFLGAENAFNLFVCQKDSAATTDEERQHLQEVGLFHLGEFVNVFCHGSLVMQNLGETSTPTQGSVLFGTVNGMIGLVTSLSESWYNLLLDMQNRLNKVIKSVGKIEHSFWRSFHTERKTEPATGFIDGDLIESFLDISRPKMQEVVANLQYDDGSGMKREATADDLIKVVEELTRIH
How it was run: as §2

[2] = label-free quantitative MS, replicate values
[3] = normalised to DMSO = 1, replicate values

For `C[C@H](C(=O)Nc1nc2ccccc2[nH]1)N1Cc2ccccc2C1=O` [compound 919278], the “reporter assay signal (normalized)” value ([1]; 5 nM) was 0.9951 and 0.9832, the “reporter assay signal (normalized)” value ([1]; 10.7 nM) was 0.9896 and 0.9546 and the “Normalized GFP/mCheery” value ([1]; 22.9 nM, HEK293T) was 0.8457. The “reporter assay signal (normalized)” value ([1]; 22.9 nM) was 0.9344 and 0.9583, the “Normalized GFP/mCheery” value ([1]; 48.9 nM, HEK293T) was 0.8139 and the “reporter assay signal (normalized)” value ([1]; 48.9 nM) was 0.9381 and 0.9234. For the same molecule, the “Normalized GFP/mCheery” value ([1]; 105 nM, HEK293T) was 0.8144, the “reporter assay signal (normalized)” value ([1]; 105 nM) was 0.9087 and 0.8866 and the “reporter assay signal (normalized)” value ([1]; 224 nM) was 0.8755 and 0.8691. The “Normalized GFP/mCheery” value ([1]; 478 nM, HEK293T) was 0.7219, the “reporter assay signal (normalized)” value ([1]; 478 nM) was 0.8011 and 0.8332 and the “reporter assay signal (normalized)” value ([1]; 2190 nM) was 0.7799 and 0.7725. The “reporter assay signal (normalized)” value ([1]; 4680 nM) was 0.7431 and 0.7578, the “Normalized GFP/mCheery” value ([1]; 10000 nM, HEK293T) was 0.6269 and the “reporter assay signal (normalized)” value ([1]; 10000 nM) was 0.7256 and 0.8167. The “cyclin K reporter degradation, result in words” value ([1]; HEK293T) was “weaker”, the DC50 ([1]; source data sheet correlations, read-out: DC50) was 176 nM and the IC50 (CDK9–cyclin T; Lanthascreen, average, Extended Data Fig. 8, read-out: CDK9 IC50) was 120 nM. For the same molecule, the “Lanthascreen TR-FRET signal (raw ratio), sheet CDK9” value (CDK9–cyclin T; compound 0.038147 nM, fourth titration set (r37), triplicates) was 0.0408 and 0.04808 and 0.04479, the “Lanthascreen TR-FRET signal (raw ratio), sheet CDK9” value (CDK9–cyclin T; compound 0.038147 nM, second titration set (r13), duplicates) was 0.01436 and 0.01414 and the “Lanthascreen TR-FRET signal (raw ratio), sheet CDK9” value (CDK9–cyclin T; compound 0.152588 nM, fourth titration set (r37), triplicates) was 0.0398 and 0.0481 and 0.0499. The “Lanthascreen TR-FRET signal (raw ratio), sheet CDK9” value (CDK9–cyclin T; compound 0.152588 nM, second titration set (r13), duplicates) was 0.01385 and 0.01395, the “Lanthascreen TR-FRET signal (raw ratio), sheet CDK9” value (CDK9–cyclin T; compound 0.610352 nM, fourth titration set (r37), triplicates) was 0.03905 and 0.04639 and 0.04821 and the “Lanthascreen TR-FRET signal (raw ratio), sheet CDK9” value (CDK9–cyclin T; compound 0.610352 nM, second titration set (r13), duplicates) was 0.01357 and 0.01395. The “Lanthascreen TR-FRET signal (raw ratio), sheet CDK9” value (CDK9–cyclin T; compound 9.76563 nM, fourth titration set (r37), triplicates) was 0.03561 and 0.04225 and 0.04097, the “Lanthascreen TR-FRET signal (raw ratio), sheet CDK9” value (CDK9–cyclin T; compound 9.76563 nM, second titration set (r13), duplicates) was 0.01332 and 0.01366 and the “Lanthascreen TR-FRET signal (raw ratio), sheet CDK9” value (CDK9–cyclin T; compound 39.0625 nM, fourth titration set (r37), triplicates) was 0.02645 and 0.03287 and 0.03192. The “Lanthascreen TR-FRET signal (raw ratio), sheet CDK9” value (CDK9–cyclin T; compound 39.0625 nM, second titration set (r13), duplicates) was 0.01225 and 0.01118, the “Lanthascreen TR-FRET signal (raw ratio), sheet CDK9” value (CDK9–cyclin T; compound 156.25 nM, fourth titration set (r37), triplicates) was 0.01751 and 0.01989 and 0.01852 and the “Lanthascreen TR-FRET signal (raw ratio), sheet CDK9” value (CDK9–cyclin T; compound 156.25 nM, second titration set (r13), duplicates) was 0.008604 and 0.00887. The “Lanthascreen TR-FRET signal (raw ratio), sheet CDK9” value (CDK9–cyclin T; compound 625 nM, fourth titration set (r37), triplicates) was 0.008779 and 0.01074 and 0.01058, the “Lanthascreen TR-FRET signal (raw ratio), sheet CDK9” value (CDK9–cyclin T; compound 625 nM, second titration set (r13), duplicates) was 0.005642 and 0.005316 and the “Lanthascreen TR-FRET signal (raw ratio), sheet CDK9” value (CDK9–cyclin T; compound 2500 nM, fourth titration set (r37), triplicates) was 0.006189 and 0.006358 and 0.00654. For the same molecule, the “Lanthascreen TR-FRET signal (raw ratio), sheet CDK9” value (CDK9–cyclin T; compound 2500 nM, second titration set (r13), duplicates) was 0.00388 and 0.003855, the “Lanthascreen TR-FRET signal (raw ratio), sheet CDK9” value (CDK9–cyclin T; compound 10000 nM, fourth titration set (r37), triplicates) was 0.00467 and 0.004911 and 0.00523 and the “Lanthascreen TR-FRET signal (raw ratio), sheet CDK9” value (CDK9–cyclin T; compound 10000 nM, second titration set (r13), duplicates) was 0.003154 and 0.003151. The “Lanthascreen signal, sheet CDK2” value (CDK2–cyclin A; Compound 0.038147 nM, experiment r13-r23) was 0.01269 and 0.01352, the “Lanthascreen signal, sheet CDK2” value (CDK2–cyclin A; Compound 0.038147 nM, experiment r48-r58) was 0.008606 and 0.009047 and the “Lanthascreen signal, sheet CDK2” value (CDK2–cyclin A; Compound 0.038147 nM, experiment r60-r70) was 0.02095 and 0.02064 and 0.01986. For the same molecule, the “Lanthascreen signal, sheet CDK2” value (CDK2–cyclin A; Compound 0.152588 nM, experiment r13-r23) was 0.01305 and 0.01362, the “Lanthascreen signal, sheet CDK2” value (CDK2–cyclin A; Compound 0.152588 nM, experiment r48-r58) was 0.00965 and 0.01047 and the “Lanthascreen signal, sheet CDK2” value (CDK2–cyclin A; Compound 0.152588 nM, experiment r60-r70) was 0.02036 and 0.02142 and 0.02063. The “Lanthascreen signal, sheet CDK2” value (CDK2–cyclin A; Compound 0.610352 nM, experiment r13-r23) was 0.01272 and 0.01276, the “Lanthascreen signal, sheet CDK2” value (CDK2–cyclin A; Compound 0.610352 nM, experiment r48-r58) was 0.009379 and 0.009611 and the “Lanthascreen signal, sheet CDK2” value (CDK2–cyclin A; Compound 0.610352 nM, experiment r60-r70) was 0.02437 and 0.01852 and 0.0217. For the same molecule, the “Lanthascreen signal, sheet CDK2” value (CDK2–cyclin A; Compound 9.76563 nM, experiment r13-r23) was 0.0128 and 0.01342, the “Lanthascreen signal, sheet CDK2” value (CDK2–cyclin A; Compound 9.76563 nM, experiment r48-r58) was 0.0095 and 0.01028 and the “Lanthascreen signal, sheet CDK2” value (CDK2–cyclin A; Compound 9.76563 nM, experiment r60-r70) was 0.02195 and 0.02182 and 0.02183. The “Lanthascreen signal, sheet CDK2” value (CDK2–cyclin A; Compound 39.0625 nM, experiment r13-r23) was 0.01226 and 0.01223, the “Lanthascreen signal, sheet CDK2” value (CDK2–cyclin A; Compound 39.0625 nM, experiment r48-r58) was 0.009849 and 0.009843 and the “Lanthascreen signal, sheet CDK2” value (CDK2–cyclin A; Compound 39.0625 nM, experiment r60-r70) was 0.02238 and 0.0202 and 0.02147. For the same molecule, the “Lanthascreen signal, sheet CDK2” value (CDK2–cyclin A; Compound 156.25 nM, experiment r13-r23) was 0.01136 and 0.01335, the “Lanthascreen signal, sheet CDK2” value (CDK2–cyclin A; Compound 156.25 nM, experiment r48-r58) was 0.009932 and 0.01021 and the “Lanthascreen signal, sheet CDK2” value (CDK2–cyclin A; Compound 156.25 nM, experiment r60-r70) was 0.02199 and 0.02222 and 0.02099. The “Lanthascreen signal, sheet CDK2” value (CDK2–cyclin A; Compound 625 nM, experiment r13-r23) was 0.01232 and 0.01317, the “Lanthascreen signal, sheet CDK2” value (CDK2–cyclin A; Compound 625 nM, experiment r48-r58) was 0.009318 and 0.009813 and the “Lanthascreen signal, sheet CDK2” value (CDK2–cyclin A; Compound 625 nM, experiment r60-r70) was 0.02407 and 0.01928 and 0.02248. For the same molecule, the “Lanthascreen signal, sheet CDK2” value (CDK2–cyclin A; Compound 2500 nM, experiment r13-r23) was 0.0114 and 0.013, the “Lanthascreen signal, sheet CDK2” value (CDK2–cyclin A; Compound 2500 nM, experiment r48-r58) was 0.009215 and 0.009737 and the “Lanthascreen signal, sheet CDK2” value (CDK2–cyclin A; Compound 2500 nM, experiment r60-r70) was 0.02278 and 0.02094 and 0.0202. The “Lanthascreen signal, sheet CDK2” value (CDK2–cyclin A; Compound 10000 nM, experiment r13-r23) was 0.01075 and 0.01117, the “Lanthascreen signal, sheet CDK2” value (CDK2–cyclin A; Compound 10000 nM, experiment r48-r58) was 0.008396 and 0.009419 and the “Lanthascreen signal, sheet CDK2” value (CDK2–cyclin A; Compound 10000 nM, experiment r60-r70) was 0.02054 and 0.0167 and 0.01885. The IC50 (CDK2–cyclin A; Lanthascreen, average, Extended Data Fig. 8, read-out: CDK2 IC50) was greater than 10000 nM, the IC50 (CDK2–cyclin A; Supplementary Table 2, read-out: Lanthascreen IC50 [nM] CDK2) was greater than 10000 nM and the “cyclin K abundance (label-free MS)” value (cyclin K; individual replicates, sheet EDF7) was 525.324 and 551.956. For the same molecule, the “cyclin K abundance (label-free MS)” value (cyclin K; [2]) was 525.324 and 551.956, the “CCNK peptide count (DMSO-normalised)” value (cyclin K; [3]) was 0.287 and 0.307 and the “average CCNK peptide count” value (cyclin K; sheet EDF7) was 538.64. The CDK13 peptide count (CDK13; [2]) was 457.834 and 405.628 and the “CDK13 peptide count (DMSO-normalised)” value (CDK13; [3]) was 0.6811 and 0.6233.
